Laboratory results as given in patent US20220218878A1, “CONTROLLED HEAT DELIVERY COMPOSITIONS” (BAMBU VAULT LLC, priority 2019, published 2022).

Columns and labels:
[1] = Surfactant effect on tetrakis aminium dye retention and particle size during emulsification; type: physicochemical; details: emulsion and evaporation process; emulsifier as labelled
Method: The preparation of the aqueous phase: under the stirring with an IKA Ultra-Turrax® T 25 homogenizer at 8000 RPM, 1.2 g of sodium dodecyl sulfate (SDS) was added into 190 g of 4.9% aqueous polyvinyl alcohol (PVA) solution placed in a round bottom flask. An aqueous solution of SDS containing 4.9% PVA was formed after the dissolution of SDS (the aqueous phase).
The preparation of the organic phase: to 88 g of dichloromethane was added 8.0 g of DSM NeoCryl® B-805 polymer (MMA/BMA copolymer), 1.82 g of Epolight™ 1117 dye, and 0.65 g of Cyanox® 1790 in 88 g to allow the formation of a clear solution of B805 polymer and dyes (the polymer: dye weight ratio=4.4:1).
The organic phase (polymer and dyes dissolved in dichloromethane) was injected directly into the aqueous phase (PVA solution with SDS surfactant) at the tip of the Turrax's roto-stator (i.e. directly into the flow being sheared by the roto-stator). The shear mixing at 8000 RPM was continued for 30 minutes. The resulting mixture was decanted into an open-mouth container and stirred magnetically for 16 hours. A solid suspension of particles containing IR dye was obtained. […]
Particle Size and Distribution for the particle heaters The particle size and size distribution of the NIR dye/MMA/BMA copolymer particles were measured by a Horiba LA-950 Particle Size Analyzer in distilled water with pH 7.4 (FIG. 3). […]

[2] = Screening of acrylic polymer carriers and additives for particle performance; type: physicochemical; details: additive within the particles
Source text: Various commercially available acrylic polymers were screened for preferred particle performance characteristic such as particle size distribution, IR dye stability and encapsulation efficiency.
The loading of dyes within the particles is as high as possible without degrading the cohesion of the polymer. The additives that stabilize the dye within the particles have been studied.

Epolight™ 1117 retention in the particles [1]	impact on dye stability [2]	Structure (SMILES)
50%	–	CCCCCCCCCCCCCOC(=O)CC(C(=O)OCCCCCCCCCCCCC)S(=O)(=O)O.[Na] (stereo not drawn) [Aerosol® TR-70, sodium bis(tridecyl) sulfosuccinate]
–	positive impact on dye stability	Cc1cc(C(C)(C)C)c(O)c(C)c1Cn1c(=O)n(Cc2c(C)cc(C(C)(C)C)c(O)c2C)c(=O)n(Cc2c(C)cc(C(C)(C)C)c(O)c2C)c1=O [Cyanox® 1790, 1,3,5-tris(4-tert-butyl-3-hydroxy-2,6-dimethylbenzyl)-1,3,5-triazine-2,4,6-(1H,3H,5H)-trione]
85-90%	–	CCCCCCCCCCCCOS(=O)(=O)[O-].[Na+] [Sodium dodecyl sulfate, sodium dodecyl sulfate]
